{"source": "paper PMC12203311", "about": "“Design, synthesis, in silico and in vitro evaluation of pyrrole–indole hybrids as dual tubulin and aromatase inhibitors with potent anticancer activities” (RSC Advances, 2025)", "key": {"CAKI-1": {"test_system": "CAKI-1", "test": "NCI60 five-dose screen", "format": "cell-based", "settings": "Homo sapiens, CAKI-1, renal cancer"}, "HCC-2998": {"test_system": "HCC-2998", "test": "NCI60 five-dose screen", "format": "cell-based", "settings": "Homo sapiens, HCC-2998, colon cancer"}, "786-0": {"test_system": "786-0", "test": "NCI60 five-dose screen", "format": "cell-based", "settings": "Homo sapiens, 786-0, renal cancer"}, "SNB-19": {"test_system": "SNB-19", "test": "NCI60 five-dose screen", "format": "cell-based", "settings": "Homo sapiens, SNB-19, CNS cancer"}, "SK-OV-3": {"test_system": "SK-OV-3", "test": "NCI60 five-dose screen", "format": "cell-based", "settings": "Homo sapiens, SK-OV-3, ovarian cancer"}, "NCI-H23": {"test_system": "NCI-H23", "test": "NCI60 five-dose screen", "format": "cell-based", "settings": "Homo sapiens, NCI-H23, NSC lung cancer"}, "MDA-MB-435": {"test_system": "MDA-MB-435", "test": "NCI60 five-dose screen", "format": "cell-based, human", "settings": "Homo sapiens"}, "A549/ATCC": {"test_system": "A549/ATCC", "test": "NCI60 five-dose screen", "format": "cell-based", "settings": "Homo sapiens, NSC lung cancer"}, "SK-MEL-5": {"test_system": "SK-MEL-5", "test": "NCI60 five-dose screen", "format": "cell-based, human", "settings": "Homo sapiens"}, "BT-549": {"test_system": "BT-549", "test": "NCI60 five-dose screen", "format": "cell-based", "settings": "Homo sapiens, BT-549, breast cancer"}, "MDA-MB-468": {"test_system": "MDA-MB-468", "test": "NCI60 five-dose screen", "format": "cell-based", "settings": "Homo sapiens, MDA-MB-468, breast cancer"}, "Human CYP19 (aromatase)": {"biological_target": "T1, Human CYP19 (aromatase) (Homo sapiens, UniProt P11511)", "T1 construct": "purchased GENTEST, Woburn, MA 456260; host or cells: baculovirus/insect cells", "T1 sequence (P11511 1-503)": "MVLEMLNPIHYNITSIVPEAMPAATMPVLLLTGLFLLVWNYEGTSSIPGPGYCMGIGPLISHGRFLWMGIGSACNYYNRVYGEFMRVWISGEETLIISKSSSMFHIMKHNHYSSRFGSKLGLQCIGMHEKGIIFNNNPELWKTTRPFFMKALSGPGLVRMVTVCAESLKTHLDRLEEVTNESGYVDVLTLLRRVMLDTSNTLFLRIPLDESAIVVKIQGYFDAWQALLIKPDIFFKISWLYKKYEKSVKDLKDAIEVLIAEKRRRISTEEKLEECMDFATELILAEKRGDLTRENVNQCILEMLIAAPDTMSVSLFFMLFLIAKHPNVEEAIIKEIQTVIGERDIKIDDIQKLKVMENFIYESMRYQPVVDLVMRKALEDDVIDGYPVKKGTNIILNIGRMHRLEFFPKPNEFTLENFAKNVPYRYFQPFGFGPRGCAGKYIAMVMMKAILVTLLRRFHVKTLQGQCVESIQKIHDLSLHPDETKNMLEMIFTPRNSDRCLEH", "test": "Aromatase inhibition assay (DBF fluorometric substrate)", "format": "biochemical", "settings": "active defined as IC50 < 12.5 µM", "outline": "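Supersomes expressing human CYP19 plus oxidoreductase (baculovirus/insect cell) with fluorometric substrate DBF; cofactor mixture pre-incubated 10 min at 37 °C, reaction run 30 min at 37 °C, stopped with NaOH. Fluorescence read at ex 490/em 530 nm.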"}, "OVCAR-3": {"test_system": "OVCAR-3", "test": "NCI60 five-dose screen", "format": "cell-based", "settings": "Homo sapiens, OVCAR-3, ovarian cancer"}, "OVCAR-5": {"test_system": "OVCAR-5", "test": "NCI60 five-dose screen", "format": "cell-based", "settings": "Homo sapiens, OVCAR-5, ovarian cancer"}, "SNB-75": {"test_system": "SNB-75", "test": "NCI60 five-dose screen", "format": "cell-based", "settings": "Homo sapiens, SNB-75, CNS cancer"}, "COLO 205": {"test_system": "COLO 205", "test": "NCI60 five-dose screen", "format": "cell-based, human", "settings": "Homo sapiens"}, "HS 578T": {"test_system": "HS 578T", "test": "NCI60 five-dose screen", "format": "cell-based", "settings": "Homo sapiens, breast cancer"}, "SF-268": {"test_system": "SF-268", "test": "NCI60 five-dose screen", "format": "cell-based", "settings": "Homo sapiens, SF-268, CNS cancer"}, "MALME-3M": {"test_system": "MALME-3M", "test": "NCI60 five-dose screen", "format": "cell-based", "settings": "Homo sapiens, melanoma"}, "LOX IMVI": {"test_system": "LOX IMVI", "test": "NCI60 five-dose screen", "format": "cell-based", "settings": "Homo sapiens, melanoma"}, "TK-10": {"test_system": "TK-10", "test": "NCI60 five-dose screen", "format": "cell-based", "settings": "Homo sapiens, TK-10, renal cancer"}, "UACC-62": {"test_system": "UACC-62", "test": "NCI60 five-dose screen", "format": "cell-based", "settings": "Homo sapiens, UACC-62, melanoma"}, "DU-145": {"test_system": "DU-145", "test": "NCI60 five-dose screen", "format": "cell-based", "settings": "Homo sapiens, DU-145, prostate cancer"}, "HL-60 (TB)": {"test_system": "HL-60 (TB)", "test": "NCI60 five-dose screen", "format": "cell-based", "settings": "Homo sapiens, leukemia"}, "NCI-H226": {"test_system": "NCI-H226", "test": "NCI60 five-dose screen", "format": "cell-based", "settings": "Homo sapiens, NCI-H226, NSC lung cancer"}, "[1]": {"settings": "read-out: LC50 (the source's name)"}}, "data": [{"compound": "O=C(N/N=C/c1cc(Br)c(Br)[nH]1)c1[nH]c2ccc(Br)cc2c1-c1ccccc1", "note": "[Derivative 3f, (E)-5-Bromo-N′-((4,5-dibromo-1H-pyrrol-2-yl)methylene)-3-phenyl-1H-indole-2-carbohydrazide]", "values": [{"measurement": "GI50", "setting": "CAKI-1", "result": 1.38, "unit": "µM"}, {"measurement": "CC50", "setting": "CAKI-1; [1]", "result": 40.9, "unit": "µM"}, {"measurement": "GI50", "setting": "HCC-2998", "result": 2.3, "unit": "µM"}, {"measurement": "CC50", "setting": "HCC-2998; [1]", "result": 24, "unit": "µM"}, {"measurement": "GI50", "setting": "786-0", "result": 4.91, "unit": "µM"}, {"measurement": "CC50", "setting": "786-0; [1]", "result": 64.1, "unit": "µM"}, {"measurement": "GI50", "setting": "SNB-19", "result": 3.47, "unit": "µM"}, {"measurement": "CC50", "setting": "SNB-19; [1]", "result": 39.3, "unit": "µM"}, {"measurement": "GI50", "setting": "SK-OV-3", "result": 4.76, "unit": "µM"}, {"measurement": "CC50", "setting": "SK-OV-3; [1]", "result": 72.5, "unit": "µM"}, {"measurement": "GI50", "setting": "NCI-H23", "result": 2.62, "unit": "µM"}, {"measurement": "CC50", "setting": "NCI-H23; [1]", "result": 34, "unit": "µM"}, {"measurement": "CC50", "setting": "MDA-MB-435; MDA-MB-435, MDA-MB-435, melanoma, read-out: LC50 (the source's name)", "result": 19.6, "unit": "µM"}, {"measurement": "GI50", "setting": "MDA-MB-435; MDA-MB-435, melanoma", "result": 1.01, "unit": "µM"}, {"measurement": "GI50", "setting": "A549/ATCC", "result": 3.11, "unit": "µM"}, {"measurement": "CC50", "setting": "A549/ATCC; [1]", "result": 37.6, "unit": "µM"}, {"measurement": "CC50", "setting": "SK-MEL-5; SK-MEL-5, SK-MEL-5, melanoma, read-out: LC50 (the source's name)", "result": 8.65, "unit": "µM"}, {"measurement": "GI50", "setting": "SK-MEL-5; SK-MEL-5, melanoma", "result": 1.72, "unit": "µM"}, {"measurement": "GI50", "setting": "BT-549", "result": 3.69, "unit": "µM"}, {"measurement": "CC50", "setting": "BT-549; [1]", "result": 90.8, "unit": "µM"}, {"measurement": "GI50", "setting": "MDA-MB-468", "result": 2.09, "unit": "µM"}, {"measurement": "CC50", "setting": "MDA-MB-468; [1]", "result": 22.8, "unit": "µM"}, {"measurement": "IC50", "setting": "Human CYP19 (aromatase)", "result": "1.5 ± 0.3", "unit": "µM"}, {"measurement": "GI50", "setting": "OVCAR-3", "result": 2.3, "unit": "µM"}, {"measurement": "CC50", "setting": "OVCAR-3; [1]", "result": 24.5, "unit": "µM"}, {"measurement": "GI50", "setting": "OVCAR-5", "result": 3.6, "unit": "µM"}, {"measurement": "CC50", "setting": "OVCAR-5; [1]", "result": 40.2, "unit": "µM"}, {"measurement": "GI50", "setting": "SNB-75", "result": 1.08, "unit": "µM"}, {"measurement": "CC50", "setting": "SNB-75; [1]", "result": 64.4, "unit": "µM"}, {"measurement": "CC50", "setting": "COLO 205; COLO 205, COLO 205, colon cancer, read-out: LC50 (the source's name)", "result": 48.8, "unit": "µM"}, {"measurement": "GI50", "setting": "COLO 205; COLO 205, colon cancer", "result": 3.36, "unit": "µM"}, {"measurement": "GI50", "setting": "HS 578T", "result": 1.82, "unit": "µM"}, {"measurement": "CC50", "setting": "HS 578T; [1]", "result": "> 100", "unit": "µM"}, {"measurement": "GI50", "setting": "SF-268", "result": 2.57, "unit": "µM"}, {"measurement": "CC50", "setting": "SF-268; [1]", "result": 65.3, "unit": "µM"}, {"measurement": "GI50", "setting": "MALME-3M", "result": 2.97, "unit": "µM"}, {"measurement": "CC50", "setting": "MALME-3M; [1]", "result": 42.4, "unit": "µM"}, {"measurement": "GI50", "setting": "LOX IMVI", "result": 2.31, "unit": "µM"}, {"measurement": "CC50", "setting": "LOX IMVI; [1]", "result": 31.8, "unit": "µM"}, {"measurement": "GI50", "setting": "TK-10", "result": 6.8, "unit": "µM"}, {"measurement": "CC50", "setting": "TK-10; [1]", "result": 49.5, "unit": "µM"}, {"measurement": "GI50", "setting": "UACC-62", "result": 1.2, "unit": "µM"}, {"measurement": "CC50", "setting": "UACC-62; [1]", "result": 38, "unit": "µM"}, {"measurement": "GI50", "setting": "DU-145", "result": 3.18, "unit": "µM"}, {"measurement": "CC50", "setting": "DU-145; [1]", "result": 33.9, "unit": "µM"}, {"measurement": "GI50", "setting": "HL-60 (TB)", "result": 2.38, "unit": "µM"}, {"measurement": "CC50", "setting": "HL-60 (TB); [1]", "result": 88.8, "unit": "µM"}, {"measurement": "GI50", "setting": "NCI-H226", "result": 2.28, "unit": "µM"}, {"measurement": "CC50", "setting": "NCI-H226; [1]", "result": 32.5, "unit": "µM"}]}]}
